# Assay results reported in PMC11134387, “Cancer-Stem-Cell Phenotype-Guided Discovery of a Microbiota-Inspired Synthetic Compound Targeting NPM1 for Leukemia” (JACS Au, 2024).
# Tests used:
# FBXW7 = assay: Western blot of FBXW7 in OCI-AML3 cells; type: cell-based
# Experimental: We next studied the impact of UCM-13369 in the genes and/or expression levels of NPM1 and NPM1 C+ pathway components (Figure 4A), including the positive regulation of c-Myc[34] and the negative regulation of FBXW7 and the pro-apoptotic CASP8.[35] […] The inhibition of NPM1 was also observed in MOLM13 cells expressing WT NPM1 (Figure S1B).
# Assay (Bio-Rad Labo rato ries, Hercules, CA, USA) and 20 µg of total protein s was loaded onto 10% SDS-PAGE gels followed by transfer onto a nitrocellulose membrane. Blots were incubated with primary antibodies α-NPM1 (Abcam ), α-M YC (Cel l Signaling), α-FBXW7 ( Abcam) and an ti-mouse or anti-rabbit secondary antibodies (BD). An antibody to β-actin was used to check for equivalent protei n loading. Membranes were developed by enhanced chemiluminescenc e (Clarity Weste rn ECL substrate; Bio-Rad Laboratories ). […]
# Proteomic analysis. A supplementary table (Excel file) includes all the data of the proteomic analysis, showing all the proteins identified, not only those ablated in the treated population, but also those found with different expression levels in both populations under study, and even those that were not detected in the control population but were detected in the treated population. Follows the image of a Venn diagram showing the number of proteins detected in each of the pop ulations and the proteins that converg e […]
# [1] = Caspase-3 pathology analysis of treated mice; type: in vivo
# Experimental: Based on the encouraging results obtained in ex vivo models of AML, we further assessed the therapeutic potential of the new NPM1 inhibitor in vivo. Prior to the evaluation of the compound in an animal model of AML, in vivo pharmacokinetic studies were addressed. Following a single intraperitoneal administration of UCM-13369 at a dose of 25 mg/kg, levels of 200–600 μg/L were detected in mouse peripheral blood up to 6 h (Figure 6A). Plasma protein binding of the compound in mouse serum was measured using an equilibrium dialysis assay, indicating a bound fraction of 83 ± 1%. Next, the efficacy of the compound was evaluated in immunodeficient mice after injection of OCI-AML3-ffLuc-GFP cells as an AML animal model. […]
# (D) IHC analysis of a poptotic cells in a representative kidney
# sample from OC I-AML 3 xenograft mice treat ed with DMSO (vehicle, top) vs . UCM-
# 13369 treated mice (50 mg/kg, bottom) mice: H&E ( left) and cleav ed caspase- 3 (right).
# Scale bar: 100 μm. (E ) Dose-response curve of UCM-13369 in human renal proximal
# [2] = system: primary CD34+ cells from healthy donors; assay: CFU-E colony-forming unit assay, healthy donors; type: cell-based; conditions: Homo sapiens
# Experimental: Considering the inhibitory capacity of UCM-13369 on AML cell lines (shown in Figure 3A), the therapeutic potential was assessed in primary CD34+ cells from AML patients. Two ex vivo models were used from AML patients and healthy donors: CD34+ liquid HSC (hematopoietic stem cell) culture as a short-term model and CFU-E (colony-forming unit–erythroid) as a midterm model.
# The test compound was diluted in PBS. […]
# Primary cells. 1x10^6/mL total mononuclear bone marrow cells (as source of CD34+ HSCs) of healthy donors and AML patients were used. They were cultured using Stem SpanTM supplement with pencillin/streptomycin (500 U/ml), TPO (10 µg/mL), SCF (10 µg/mL), FLT3 (10 µg/mL), IL-6 (10 µg/mL) and IL-3 (10 µg/mL). After 24 h fresh medium was added. After 72 h in maintenance cells were ready to start the assays. All cells wer e maintained at 37 °C in a humidified incubator in an atmosphere of 5% CO2.
# Colonospheres, mamospheres and colony formation unit assays. 30.000 cells per well of MCF-7 cells (mamos pheres), HCT-116 cells (colonospheres) and CD34+ cells from patients (colony formation units) were seeded in serum free non- adherent medium or […]
# MethoCult (Stem Cell). […]
# MCF-7 = assay: Cytotoxic effect in breast tumor cell line (MTT); conditions: Homo sapiens, MCF7, read-out: Viability (%) MCF-7, @5 µM (footnote d)
# Experimental: The cytotoxic effect was determined in breast (MCF-7) and colon (HCT-116) tumor cell lines using MTT assays.
# Cells were seeded at 3 × 10^4 cells/mL in 96-well plates. The test compound was diluted in PBS. […] Viability was evaluated by MTT or WST-1 and dose/response curves were performed.
smiles,measurement,setting,value
"COc1ccc(C2Cc3[nH]c4ccccc4c3C(CCNCC3CC3)C2N)cc1 (centres unmarked) [4b, 4-{2-[(Cyclopropylmethyl)amino]ethyl}-2-(4-methoxyphenyl)-2,3,4,9-tetrahydro-1H-carbazol-3-amine]",FBXW7 levels (in words),FBXW7,upregulated
same,Caspase-3 cleavage in kidney (in words),[1]; 50 mg/kg,some caspase-3 cleavage
same,"Toxicity in bone marrow and liver, caspase-3 pathology (in words)",[1]; data not shown,absence of toxicity
same,IC50,[2],1730 nM
same,viability at 5 µM,MCF-7,96%
